Results taken from patent US20120029016A1, “Indoles Useful in the Treatment of Inflammation” (BIOLIPOX AB, priority 2008, published 2012).

How the values were obtained:
[1] = molecular target: T1, Recombinant human LTC4 synthase (Homo sapiens, UniProt Q16873); test: In vitro assay Method B: LTC4 synthase, LTA4 to LTC4, HTRF detection; format: biochemical; conditions: total concentration of title compound 10 μM, read-out: % inh. of LTC4 synthase
T1 construct: made in house; host or cells: Pichia pastoris ('Piccia pastoralis' [sic])
T1 sequence (Q16873 1-150): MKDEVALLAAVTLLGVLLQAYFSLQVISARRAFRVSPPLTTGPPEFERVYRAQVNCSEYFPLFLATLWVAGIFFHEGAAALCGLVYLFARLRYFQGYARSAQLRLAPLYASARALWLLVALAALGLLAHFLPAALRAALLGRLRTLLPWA
Experimental: In the assay, LTC4 synthase catalyses the reaction where the substrate LTA4 is converted to LTC4. Recombinant human LTC4 synthase is expressed in Piccia pastoralis and the purified enzyme is dissolved in 25 mM Tris-buffer pH 7.8 and stored at −20° C. The assay is performed in phosphate buffered saline (PBS) pH 7.4, supplemented with 5 mM glutathione (GSH). The assay is performed at rt in 384-well plates. Analysis of the formed LTC4 is performed using costume made homogenous time-resolved fluorescence (HTRF) detection (Cisbio).
The following is added chronologically to each well: • 1. 50 μL assay buffer, PBS with 5 mM GSH. • 2. 0.5 μL inhibitor in DMSO. • 3. 2 μl LTC4 synthase in PBS. The total protein concentration in this solution is 0.025 mg/ml. Incubation of the plate at rt for 10 min. • 4. 1-1.5 μL LTA4 (final conc. 2.5 μM). Incubation of the plate at rt for 1 min. 10 μL of the incubation mixture is analysed using HTRF detection.

[2] = test system: cysteinyl leukotrienes concentration in the peritoneal lavage; test: Mouse peritoneal inflammation model (zymosan ip), cysteinyl leukotrienes in peritoneal lavage by EIA; format: in vivo, Male BALB/c mice; conditions: 0.5 h, 5 min before zymosan, lavage 30 min after zymosan, read-out: %-inhibition of cysteinyl leukotrienes concentration vs vehicle treated mice; for inhibition in vivo at 3 mg/kg: 3 mg/kg ip; for inhibition in vivo at 10 mg/kg: 10 mg/kg ip
Experimental: The in vivo efficacy of leukotriene biosynthesis inhibitors was assed by using a model of peritoneal inflammation. Male BALB/c mice (weighing 20-25 grams) received an intraperitoneal injection (ip) of 0.5 ml zymosan dissolved in phosphate buffer saline (PBS) (pH 7.5, 1 mg/mL). 5 Minutes before the zymosan injection compounds (1-10 mg/kg) or vehicle were administered ip (10 mL/kg). 30 min after the zymosan injection the mice were anaesthetized and the peritoneal cavity was flushed with 4 mL PBS. The peritoneal lavage was centrifuged at 6000 rcf for 5 minutes and the cysteinyl leukotrienes concentration in the supernatant was determined by EIA. The cysteinyl leukotrienes concentration in the peritoneal lavage from compound treated mice was compared to vehicle treated mice and the % inhibition was calculated.

SMILES | inhibition at 10 µM [1] [%] | also measured
CC(C)Oc1ccc(Oc2ccc3c(c2)c(C(=O)O)c(CC(=O)O)n3-c2ccc(OCc3cccc(Cl)c3)cc2)cc1 [1:7, 2-Carboxymethyl-1-[4-(3-chlorobenzyloxy)phenyl]-5-(4-isopropoxy-phenoxy)indole-3-carboxylic acid] | 94 | 
CC(C)Oc1ccc(Oc2ccc3c(c2)c(C(=O)O)c(CC(=O)O)n3-c2ccc(OCc3ccc(Cl)nc3)cc2)cc1 [1:11, 2-Carboxymethyl-1-[4-(6-chloro-3-pyridinylmethoxy)phenyl]-5-(4-isopropoxyphenoxy)indole-3-carboxylic acid] | 99 | 
CC(C)Oc1ccc(Oc2ccc3c(c2)c(C(=O)O)c(CC(=O)O)n3-c2ccc(Oc3cccc(Cl)c3)cc2)cc1 [3:2, 2-Carboxymethyl-1-[4-(3-chlorophenoxy)phenyl]-5-(4-isopropoxy-phenoxy)indole-3-carboxylic acid] | 97 | 
CC(C)Oc1ccc(Oc2ccc3c(c2)c(C(=O)O)c(CC(=O)O)n3-c2ccc(Oc3ccccc3Cl)cc2)cc1 [3:4, 2-Carboxymethyl-1-[4-(2-chlorophenoxy)phenyl]-5-(4-isopropoxy-phenoxy)indole-3-carboxylic acid] | 9 | 
O=C(O)Cc1c(C(=O)O)c2cc(Oc3ccc(OC4CCCC4)cc3)ccc2n1-c1ccc(OC2CCCC2)cc1 [4:3, 2-Carboxymethyl-5-(4-cyclopentyloxyphenoxy)-1-(4-cyclopentyloxyphenyl)indole-3-carboxylic acid] | 97 | 
O=C(O)Cc1c(C(=O)O)c2cc(Oc3ccc(OC4CC4)cc3)ccc2n1-c1ccc(OC2CCCC2)cc1 [4:4, 2-Carboxymethyl-1-(4-cyclopentyloxyphenyl)-5-(4-cyclopropoxyphenoxy)-indole-3-carboxylic acid] | 98 | 
O=C(O)Cc1c(C(=O)O)c2cc(Oc3ccc(OC(F)(F)F)cc3)ccc2n1-c1ccc(NCc2cccnc2)cc1 [6:1, 2-Carboxymethyl-1-[4-(3-pyridinylmethylamino)phenyl]-5-(4-trifluoromethoxyphenoxy)indole-3-carboxylic acid] | 100 | 
CCN(c1ccc(-n2c(CC(=O)O)c(C(=O)O)c3cc(Oc4ccc(OC(F)(F)F)cc4)ccc32)cc1)c1cccc(C)c1 [6:4, 2-Carboxymethyl-1-{4-[ethyl(m-tolyl)amino]phenyl}-5-(4-trifluoromethoxy-phenoxy)indole-3-carboxylic acid] | 94 | 
O=C(O)Cc1c(C(=O)O)c2cc(Oc3ccc(OC(F)(F)F)cc3)ccc2n1-c1ccc(NC2CCCC2)cc1 [6:5, 2-Carboxymethyl-1-(4-cyclopentylaminophenyl)-5-(4-trifluoromethoxy-phenoxy)indole-3-carboxylic acid] | 100 | 
CCCCCCCCNc1ccc(-n2c(CC(=O)O)c(C(=O)O)c3cc(Oc4ccc(OC(F)(F)F)cc4)ccc32)cc1 [6:7, 2-Carboxymethyl-1-(4-octylaminophenyl)-5-(4-trifluoromethoxyphenoxy)-indole-3-carboxylic acid] | 98 | 
O=C(O)Cc1c(C(=O)O)c2cc(Oc3ccc(OC(F)(F)F)cc3)ccc2n1-c1ccc(Nc2cccc3c2CCCC3)cc1 [6:8, 2-Carboxymethyl-1-[4-(5,6,7,8-tetrahydro-1-naphthylamino)phenyl]-5-(4-trifluoromethoxyphenoxy)indole-3-carboxylic acid] | 97 | 
O=C(O)Cc1c(C(=O)O)c2cc(Oc3ccc(OC(F)(F)F)cc3)ccc2n1-c1ccc(NCc2ccccc2)cc1 [6:9, 1-(4-benzylaminophenyl)-2-carboxymethyl-5-(4-trifluoromethoxy-phenoxy)indole-3-carboxylic acid] | 100 | 
COc1ccc(COc2ccc(-n3c(CC(=O)O)c(C(=O)O)c4cc(Oc5ccc(OC(C)C)cc5)ccc43)cc2)cc1 [Example 1:5, 2-Carboxymethyl-1-5-(4-isopropoxyphenoxy)-[4-(4-methoxybenzyloxy)-phenyl]indole-3-carboxylic acid] | 97 | inhibition in vivo at 10 mg/kg [2]: 92%
CC(C)Oc1ccc(Oc2ccc3c(c2)c(C(=O)O)c(CC(=O)O)n3-c2ccc(OCc3ccccn3)cc2)cc1 [Example 1:9, 2-Carboxymethyl-1-5-(4-isopropoxyphenoxy)-[4-(2-pyridinylmethoxy)-phenyl]indole-3-carboxylic acid] | 98 | inhibition in vivo at 3 mg/kg [2]: 97%
CC(C)Oc1ccc(Oc2ccc3c(c2)c(C(=O)O)c(CC(=O)O)n3-c2ccc(OC3CCC(C)(C)CC3)cc2)cc1 [Example 5:1, 2-Carboxymethyl-1-[4-(4,4-dimethylcyclohexyloxy)phenyl]-5-(4-isopropoxyphenoxy)indole-3-carboxylic acid] | 97 | 
O=C(O)Cc1c(C(=O)O)c2cc(Oc3ccc(OC(F)(F)F)cc3)ccc2n1-c1ccc(NCc2ccc(Cl)nc2)cc1 [Example 6:2, 2-Carboxymethyl-1-{4-[(6-chloro-3-pyridinylmethyl)amino]phenyl}-5-(4-trifluoromethoxyphenoxy)indole-3-carboxylic acid] | 95 | 

Further lines, with some results ahead:

inhibition at 10 µM [1] [%] | SMILES | also measured
95 | CC(C)Oc1ccc(Oc2ccc3c(c2)c(C(=O)O)c(CC(=O)O)n3-c2ccc(OCc3ccccc3Cl)cc2)cc1 [1:3, 2-Carboxymethyl-1-[4-(2-chlorobenzyloxy)phenyl]-5-(4-isopropoxy-phenoxy)indole-3-carboxylic acid] | 
93 | CC(C)Oc1ccc(Oc2ccc3c(c2)c(C(=O)O)c(CC(=O)O)n3-c2ccc(OCc3ccc(Cl)c(Cl)c3)cc2)cc1 [1:4, 2-Carboxymethyl-1-[4-(3,4-dichlorobenzyloxy)phenyl]-5-(4-isopropoxyphenoxy)indole-3-carboxylic acid] | 
95 | CC(C)Oc1ccc(Oc2ccc3c(c2)c(C(=O)O)c(CC(=O)O)n3-c2ccc(OCc3ccc(Cl)cc3)cc2)cc1 [1:6, 2-Carboxymethyl-1-[4-(4-chlorobenzyloxy)phenyl]-5-(4-isopropoxy-phenoxy)indole-3-carboxylic acid] | 
100 | O=C(O)Cc1c(C(=O)O)c2cc(Oc3ccc(OC(F)(F)F)cc3)ccc2n1-c1ccc(OC2CCCC2)cc1 [4:2, 2-Carboxymethyl-1-(4-cyclopentyloxyphenyl)-5-(4-trifluoromethoxyphenoxy)indole-3-carboxylic acid] | 
95 | CC(C)Oc1ccc(Oc2ccc3c(c2)c(C(=O)O)c(CC(=O)O)n3-c2ccc(OC3CC4CCC3C4)cc2)cc1 (centres unmarked) [5:3, 2-Carboxymethyl-5-(4-isopropoxyphenoxy)-1-[4-(2-norbomanyloxy)-phenyl]indole-3-carboxylic acid] | 
100 | CCN(c1ccccc1)c1ccc(-n2c(CC(=O)O)c(C(=O)O)c3cc(Oc4ccc(OC(F)(F)F)cc4)ccc32)cc1 [6:3, 2-Carboxymethyl-1-{4-[ethyl(phenyl)amino]phenyl}-5-(4-trifluoromethoxy-phenoxy)indole-3-carboxylic acid] | 
97 | O=C(O)Cc1c(C(=O)O)c2cc(Oc3ccc(OC(F)(F)F)cc3)ccc2n1-c1ccc(NCC2CCCCC2)cc1 [6:6, 2-Carboxymethyl-1-(4-cyclohexylmethylaminophenyl)-5-(4-trifluoro-methoxyphenoxy)indole-3-carboxylic acid] | 
99 | CC(C)Oc1ccc(Oc2ccc3c(c2)c(C(=O)O)c(CC(=O)O)n3-c2ccc(OCc3ccccc3)cc2)cc1 [Example 1:1, 1-(4-Benzyloxyphenyl)-2-carboxymethyl-5-(4-isopropoxyphenoxy)indole-3-carboxylic acid] | inhibition in vivo at 1 mg/kg ([2]; 1 mg/kg ip): 78%; inhibition in vivo at 3 mg/kg [2]: 92%; inhibition in vivo at 10 mg/kg [2]: 100%
96 | Cc1ccc(COc2ccc(-n3c(CC(=O)O)c(C(=O)O)c4cc(Oc5ccc(OC(C)C)cc5)ccc43)cc2)cc1 [Example 1:2, 2-Carboxymethyl-5-(4-isopropoxyphenoxy)-1-(4-(4-methylbenzyloxy)phenyl)indole-3-carboxylic acid] | 
98 | CC(C)Oc1ccc(Oc2ccc3c(c2)c(C(=O)O)c(CC(=O)O)n3-c2ccc(OCc3ccccc3C(F)(F)F)cc2)cc1 [Example 1:8, 2-Carboxymethyl-1-5-(4-isopropoxyphenoxy)-[4-(2-trifluoromethyl-benzyloxy)phenyl]indole-3-carboxylic acid] | inhibition in vivo at 10 mg/kg [2]: 96%
